Key:
LEFCH = experiment: Postemergence foliar-applied greenhouse weed control, LEFCH; format: in vivo, Leptochloa chinensis (L.) Nees
Source text: Seeds or nutlets of the desired test plant species were planted in a soil matrix prepared by mixing a loam or sandy loam soil (e.g., 28.6 percent silt, 18.8 percent clay, and 52.6 percent sand, with a pH of about 5.8 and an organic matter content of about 1.8 percent) and calcareous grit in an 80 to 20 ratio. The soil matrix was contained in plastic pots with a volume of 1 quart and a surface area of 83.6 square centimeters (cm^2). When required to ensure good germination and healthy plants, a fungicide treatment and/or other chemical or physical treatment was applied. The plants were grown for 8-22 days in a greenhouse with an approximate 14 h photoperiod which was maintained at about 29° C. during the day and 26° C. during the night. Nutrients (Peters Excel® 15-5-15 5-Ca 2-Mg and iron chelate) were applied in the irrigation solution as needed and water was added on a regular basis. Supplemental lighting was provided with overhead metal halide 1000-Watt lamps as necessary. The plants were employed for testing when they reached the first through fourth true leaf stage.
Treatments consisted of the acid or esters of 4-amino-3-chloro-5-fluoro-6-(4-chloro-2-fluoro-3-methoxy-phenyl) pyridine-2-carboxylic acid (Compound A), each formulated as an SC (suspension concentrate), and various herbicidal components alone and in combination. Forms of compound A were applied on an acid equivalent basis.
Other herbicidal components were applied on an active ingredient basis and included auxin transport inhibiting (ATI) herbicides chlorflurenol (technical material), chlorflurenol-methyl (technical material), diflufenzopyr (technical material), diflufenzopyr sodium (technical material), flurenol-methyl (technical material) and naptalam (technical material).
Treatment requirements were calculated based upon the rates being tested, the concentration of active ingredient or acid equivalent in the formulation, and a 12 mL application volume at a rate of 187 L/ha.
For treatments comprised of formulated and technical compounds, weighed amounts of the technical materials were placed individually in 25 mL glass vials and dissolved in a volume of 97:3 v/v acetone/DMSO to obtain 12× stock solutions, and measured amounts of the formulated compounds were placed individually in 25 mL glass vials and diluted in a volume of 1.5% (v/v) crop oil concentrate or water to obtain 12× stock solutions. […] Application solutions were prepared by adding an appropriate amount of each stock solution (e.g., 1 mL) and diluted to the appropriate final concentrations with the addition of an appropriate amount of an aqueous mixture of 1.5% (v/v) crop oil concentrate so that the final spray solutions contained 1.25% (v/v) crop oil concentrate. When required, additional water and/or 97:3 v/v acetone/DMSO was added to individual application solutions so that the final acetone and DMSO concentrations of the application solutions being compared were 8.1% and 0.25%, respectively.
All stock solutions and applications solutions were visually inspected for compound compatibility prior to application. Spray solutions were applied to the plant material with an overhead Mandel track sprayer equipped with an 8002E nozzle calibrated to deliver 187 L/ha over an application area of 0.503 m^2 at a spray height of 18 to 20 inches (46 to 50 cm) above average plant canopy height. Control plants were sprayed in the same manner with the solvent blank.
The treated plants and control plants were placed in a greenhouse as described above and watered by sub-irrigation to prevent wash-off of the test compounds. After approximately 3 weeks, the condition of the test plants as compared with that of the untreated plants was determined visually and scored on a scale of 0 to 100 percent where 0 corresponds to no injury or growth inhibition and 100 corresponds to complete kill. […]

ECHOR = experiment: In-water applied (paddy) greenhouse weed control, ECHOR; format: in vivo, Echinochloa oryzoides (Ard.) Fritsch
Experimental: Weed seeds or nutlets of the desired test plant species were planted in puddled soil (mud) prepared by mixing a shredded, non-sterilized mineral soil (50.5 percent silt, 25.5 percent clay, and 24 percent sand, with a pH of about 7.6 and an organic matter content of about 2.9 percent) and water at a 1:1 volumetric ratio. The prepared mud was dispensed in 365 mL aliquots into 16-ounce (oz.) non-perforated plastic pots with a surface area of 86.59 square centimeters (cm^2) leaving a headspace of 3 centimeters (cm) in each pot. Mud was allowed to dry overnight prior to planting or transplanting. Rice seeds were planted in Sun Gro MetroMix® 306 planting mixture, which typically has a pH of 6.0 to 6.8 and an organic matter content of about 30 percent, in plastic plug trays. Seedlings at the second or third leaf stage of growth were transplanted into 840 mL of mud contained in 32-oz. non-perforated plastic pots with a surface area of 86.59 cm^2 4 days prior to herbicide application. The paddy was created by filling the headspace of the pots with 2.5 to 3 cm of water. When required to ensure good germination and healthy plants, a fungicide treatment and/or other chemical or physical treatment was applied. The plants were grown for 4-22 days in a greenhouse with an approximate 14 h photoperiod which was maintained at about 29′C during the day and 26° C. during the night. Nutrients were added as Osmocote® (19:6:12, N:P:K+minor nutrients) at 2 g per 16-oz. pot and 4 g per 960-mL 32-oz. pot. Water was added on a regular basis to maintain the paddy flood, and supplemental lighting was provided with overhead metal halide 1000-Watt lamps as necessary. The plants were employed for testing when they reached the second or third true leaf stage.
Treatments consisted of the acid or esters of 4-amino-3-chloro-5-fluoro-6-(4-chloro-2-fluoro-3-methoxy-phenyl)pyridine-2-carboxylic acid (compound A) each formulated as an SC and various herbicidal components alone and in combination. Forms of compound A were applied on an acid equivalent basis.
Other herbicidal components were applied on an active ingredient basis and included auxin transport inhibiting (ATI) herbicides chlorflurenol-methyl (technical material), chlorflurenol (technical material), diflufenzopyr (technical material), dilfufenzopyr sodium (technical material), flurenol-methyl (technical material,) and naptalam (technical material).
Treatment requirements for each compound or herbicidal component were calculated based upon the rates being tested, the concentration of active ingredient or acid equivalent in the formulation, an application volume of 2 mL per component per pot, and an application area of 86.59 cm^2 per pot.
For formulated compounds, a measured amount was placed in an individual 100 or 200 mL glass vial and was dissolved in a volume of 1.25% (v/v) Agri-Dex® crop oil concentrate to obtain application solutions.
For technical grade compounds, a weighed amount was placed in an individual 100 to 200 mL glass vial and was dissolved in a volume of acetone to obtain concentrated stock solutions. […] The concentrated stock solutions obtained were diluted with an equivalent volume of an aqueous mixture containing 2.5% (v/v) crop oil concentrate so that the final application solutions contained 1.25% (v/v) crop oil concentrate.
Applications were made by injecting with a pipetter appropriate amounts of the application solutions, individually and sequentially, into the aqueous layer of the paddy. Control plants were treated in the same manner with the solvent blank. Applications were made so that all treated plant material received the same concentrations of acetone and crop oil concentrate.
The treated plants and control plants were placed in a greenhouse as described above and water was added as needed to maintain a paddy flood. […]

Row | SMILES | Visual Weed Control (%) Obs (LEFCH; 20 DAA, 4.38 gae/ha) | Visual Weed Control (%) Obs (LEFCH; 20 DAA, 8.75 gae/ha) | Visual Weed Control (%) Obs (LEFCH; 20 DAA, 17.5 gae/ha) | Visual Weed Control (%) Obs (LEFCH; 21 DAA, 8.75 gae/ha) | Visual Weed Control (%) Obs (LEFCH; 21 DAA, 17.5 gae/ha) | Visual Weed Control (%) Obs (ECHOR; 20 DAA, 8.75 gae/ha) | Visual Weed Control (%) Obs (ECHOR; 20 DAA, 17.5 gae/ha) | Visual Weed Control (%) Obs (ECHOR; 20 DAA, 35 gae/ha) | Visual Weed Control (%) Obs (ECHOR; 22 DAA, 8.75 gae/ha) | Visual Weed Control (%) Obs (ECHOR; 22 DAA, 17.5 gae/ha) | Visual Weed Control (%) Obs (ECHOR; 22 DAA, 35 gae/ha) | Visual Weed Control (%) Obs (LEFCH; 21 DAA, 4.38 gae/ha) | Visual Weed Control (%) Obs (LEFCH; 22 DAA, 32 gae/ha) | Visual Weed Control (%) Obs (ECHOR; 19 DAA, 32 gae/ha) | Visual Weed Control (%) Obs (ECHOR; 20 DAA, 4.38 gae/ha)
1 | COc1c(Cl)ccc(-c2nc(C(=O)O)c(Cl)c(N)c2F)c1F [Compound A Acid, 4-amino-3-chloro-6-(4-chloro-2-fluoro-3-methoxyphenyl)-5-fluoropyridine-2-carboxylic acid] | 0% | 30% | 30% | 30% | 30% | 10% | 15% | 25% | 0% | 20% | 20% | – | – | – | –
2 | COc1c(Cl)ccc(-c2nc(C(=O)OCc3ccccc3)c(Cl)c(N)c2F)c1F [Compound A Benzyl Ester] | 15% | 30% | – | 40% | 50% | 15% | – | – | – | – | – | 15% | 40% | 25% | 10%

— US20140031217A1, “HERBICIDAL COMPOSITIONS COMPRISING 4-AMINO-3-CHLORO-5-FLUORO-6-(4-CHLORO-2-FLUORO-3-METHOXYPHENYL)PYRIDINE-2-CARBOXYLIC ACID OR A DERIVATIVE THEREOF AND AUXIN TRANSPORT INHIBITORS” (DOW AGROSCIENCES LLC, priority 2012, published 2014)
